Data taken from article PMC5041982, “Small-molecule inhibition of STAT3 in radioresistant head and neck squamous cell carcinoma” (Oncotarget, 2016).
Where “and” joins values, the source holds several entries; their conditions need not be identical. Identical values can stand only once.

Experiments:
STAT3 = STAT3 (Homo sapiens, UniProt P40763); assay: STAT3/pY-peptide binding surface plasmon resonance (SPR) assay; details: for Inhibition of STAT3 binding to pY-peptide compared with C188: SPR; for IC50: STAT3 200 nM, EGFR pY1068 dodecapeptide, mean, n ≥ 2, read-out: pY-Peptide Binding (SPR) IC50
STAT3, sequence (P40763 whole entry, species assumed): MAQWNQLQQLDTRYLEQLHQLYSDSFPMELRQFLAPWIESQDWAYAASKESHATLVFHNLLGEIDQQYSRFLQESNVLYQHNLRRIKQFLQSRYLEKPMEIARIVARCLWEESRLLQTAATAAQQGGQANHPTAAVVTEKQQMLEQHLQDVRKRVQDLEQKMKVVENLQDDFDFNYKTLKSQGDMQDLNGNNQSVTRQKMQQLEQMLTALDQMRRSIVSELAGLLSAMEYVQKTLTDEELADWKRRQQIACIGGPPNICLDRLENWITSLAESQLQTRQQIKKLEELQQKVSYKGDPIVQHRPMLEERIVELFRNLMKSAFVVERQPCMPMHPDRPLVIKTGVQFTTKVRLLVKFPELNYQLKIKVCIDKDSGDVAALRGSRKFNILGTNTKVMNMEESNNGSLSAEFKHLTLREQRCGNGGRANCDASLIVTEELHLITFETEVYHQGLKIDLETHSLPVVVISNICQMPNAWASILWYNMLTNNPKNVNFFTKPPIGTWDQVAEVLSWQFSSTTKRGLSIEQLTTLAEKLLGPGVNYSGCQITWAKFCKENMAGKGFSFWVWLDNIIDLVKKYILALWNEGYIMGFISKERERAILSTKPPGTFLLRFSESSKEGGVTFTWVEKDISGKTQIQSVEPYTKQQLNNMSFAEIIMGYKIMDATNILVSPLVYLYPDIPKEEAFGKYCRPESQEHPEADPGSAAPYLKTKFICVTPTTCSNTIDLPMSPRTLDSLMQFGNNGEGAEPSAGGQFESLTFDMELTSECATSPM
Description: The equilibrium binding levels obtained ± compound were normalized (resonance obtained in the presence of compound ÷ the resonance obtained in the absence of compound × 100) and plotted against Log [nM] […] B. Inhibition of ligand-stimulated STAT phosphorylation, measured by phosphoflow. Serum-starved (1 hour) Kasumi-1 cells, pre-incubated with compound/DMSO (1 hour), were treated with G-CSF (10 ng/ml, 15 min, left two panels) or IFN-γ (10ng/ml, 15 min, right panel). Cells were permeabilized and stained with Alexa647-pSTAT3, and PE-pSTAT1 antibodies and analyzed on BD LSR2. FCS files were uploaded to Cytobank for pSTAT3 and pSTAT1 quantitation. Histograms depicting pSTAT3 and pSTAT1 levels are shown. C. Mean fluorescence (pSTAT3/1) levels were plotted as function the Log [M] compound, and IC50 calculated using GraphPad. […] D. Inhibition of ligand-stimulated STAT phosphorylation, measured by Luminex. Serum-starved (1 hour) Kasumi-1 cells, pre-incubated with compound/DMSO (0/0.1/0.3/1/3/10/100 μM, 1 hour), were treated with G-CSF (10 ng/ml, 15′). Total protein extracts of cells were assayed for pSTAT3, pSTAT1, and GAPDH levels by Luminex. GAPDH-normalized pSTAT3 or pSTAT1 values were divided by this ratio for untreated cells and expressed in percentage. These values were plotted as a function of Log [M] compound, and IC50 values calculated using GraphPad. […]
3-D pharmacophore sorting used to evaluate the effect of each compound on STAT3 binding. Responses were normalized by dividing the […]
fingerprint screening were converted into 3-D structures compounds at 2 min and multiplying by 100. IC values […]
for analysis as described below. were determined by plotting % maximum response as a 3-D pharmacophore generation function of log concentration of compound and fitting the Each molecular chemical feature, including experimental points to a competitive binding model using hydrogen bond donor, hydrogen bond acceptor, positive a four parameter logistic equation: R = Rhigh − (Rhigh − R low)/ (1 + conc/A1)^A2, where R = percent response at and negative ionizable group, and hydrophobic region, inhibitor concentration, R = percent response with no was generated using the LigandScout application compound, R= percent response at highest compound high framework and projected into 3-D space. concentration, A2 = fitting parameter (slope) and A1 = low Feature-pairing IC50 (BIAevaluation Software version 4.1). The inhibition Each chemical feature was converted into distance constant (Ki) was derived from the Cheng-Prusoff bin and the complete set of distance bins used to construct equation Ki=IC50/(1+[C]/Kd) as used by Halling et al a cost matrix. The most favorable pairing based on cost where C stands for STAT3 concentration used in the SPR matrix was identified. assay and Kd denotes the dissociation constant for STAT3 3-D pharmacophore transformation binding to its phosphorylated EGFR ligand in the SPR […]
STAT3/pY-peptide binding assay and total protein extracted from cell pellets. […]
STAT3 binding assays were performed at 25 °C (Millipore, Danvers, MA) coupled to antibody against

pSTAT3 (Tyr-705) = target: T1, pSTAT3 (Tyr-705) (Homo sapiens, UniProt P40763); assay: Phosphoflow, G-CSF-induced STAT3 phosphorylation in Kasumi-1 cells; type: cell-based; details: Kasumi-1, G-CSF 10 ng/ml 15 min; mean, n ≥ 2; read-out: Ligand Induced Phosphorylation (Phosphoflow) pSTAT3 (GCSF) IC50
T1 construct: endogenous in cells; host or cells: Kasumi-1
T1 sequence (P40763 whole entry): as the sequence (P40763 whole entry, species assumed) above
Description: (§1) The equilibrium binding levels obtained ± compound were normalized (resonance obtained in the presence of compound ÷ the resonance obtained in the absence of compound × 100) and plotted against Log [nM] […] B. Inhibition of ligand-stimulated STAT phosphorylation, measured by phosphoflow. Serum-starved (1 hour) Kasumi-1 cells, pre-incubated with compound/DMSO (1 hour), were treated with G-CSF (10 ng/ml, 15 min, left two panels) or IFN-γ (10ng/ml, 15 min, right panel). Cells were permeabilized and stained with Alexa647-pSTAT3, and PE-pSTAT1 antibodies and analyzed on BD LSR2. FCS files were uploaded to Cytobank for pSTAT3 and pSTAT1 quantitation. Histograms depicting pSTAT3 and pSTAT1 levels are shown. C. Mean fluorescence (pSTAT3/1) levels were plotted as function the Log [M] compound, and IC50 calculated using GraphPad. […] D. Inhibition of ligand-stimulated STAT phosphorylation, measured by Luminex. Serum-starved (1 hour) Kasumi-1 cells, pre-incubated with compound/DMSO (0/0.1/0.3/1/3/10/100 μM, 1 hour), were treated with G-CSF (10 ng/ml, 15′). Total protein extracts of cells were assayed for pSTAT3, pSTAT1, and GAPDH levels by Luminex. GAPDH-normalized pSTAT3 or pSTAT1 values were divided by this ratio for untreated cells and expressed in percentage. These values were plotted as a function of Log [M] compound, and IC50 values calculated using GraphPad.
(§2) Phosphoflow analysis was done as described in Xu et al. Briefly, Kasumi-1 cells, were serum-starved, pre-treated with compound or DMSO (1 hour, RT) and then stimulated with 20 μl of GCSF (10 ng/ml) for 15 minutes at 37°C. The cells were then permeabilized and stained with Alexa647-pSTAT3, Alexa488-pSTAT5 and PE-pSTAT1 antibodies and analyzed using the BD LSR2. FCS files were exported and uploaded to Cytobank for determination of phosphoproteins as earlier. Gating was done on live, single cells and then gates selected for positive ligand-activated pSTAT3 and pSTAT1. IC50 values were calculated using the GraphPad Prism.

pSTAT5 = assay: Phosphoflow, G-CSF-induced pSTAT5 in Kasumi-1 cells; type: cell-based; details: mean, n ≥ 2, read-out: Ligand Induced Phosphorylation (Phosphoflow) pSTAT5 (G-CSF) IC50
Description: as §2

pSTAT1 (Tyr-701) = target: T2, pSTAT1 (Tyr-701) (Homo sapiens, UniProt P42224); assay: Phosphoflow, IFN-γ-induced pSTAT1 in Kasumi-1 cells; type: cell-based; details: Kasumi-1, IFN-γ 10 ng/ml 15 min; mean, n ≥ 2; read-out: Ligand Induced Phosphorylation (Phosphoflow) pSTAT1 (IFN-γ) IC50
T2 construct: endogenous in cells; host or cells: Kasumi-1
T2 sequence (P42224 1-750): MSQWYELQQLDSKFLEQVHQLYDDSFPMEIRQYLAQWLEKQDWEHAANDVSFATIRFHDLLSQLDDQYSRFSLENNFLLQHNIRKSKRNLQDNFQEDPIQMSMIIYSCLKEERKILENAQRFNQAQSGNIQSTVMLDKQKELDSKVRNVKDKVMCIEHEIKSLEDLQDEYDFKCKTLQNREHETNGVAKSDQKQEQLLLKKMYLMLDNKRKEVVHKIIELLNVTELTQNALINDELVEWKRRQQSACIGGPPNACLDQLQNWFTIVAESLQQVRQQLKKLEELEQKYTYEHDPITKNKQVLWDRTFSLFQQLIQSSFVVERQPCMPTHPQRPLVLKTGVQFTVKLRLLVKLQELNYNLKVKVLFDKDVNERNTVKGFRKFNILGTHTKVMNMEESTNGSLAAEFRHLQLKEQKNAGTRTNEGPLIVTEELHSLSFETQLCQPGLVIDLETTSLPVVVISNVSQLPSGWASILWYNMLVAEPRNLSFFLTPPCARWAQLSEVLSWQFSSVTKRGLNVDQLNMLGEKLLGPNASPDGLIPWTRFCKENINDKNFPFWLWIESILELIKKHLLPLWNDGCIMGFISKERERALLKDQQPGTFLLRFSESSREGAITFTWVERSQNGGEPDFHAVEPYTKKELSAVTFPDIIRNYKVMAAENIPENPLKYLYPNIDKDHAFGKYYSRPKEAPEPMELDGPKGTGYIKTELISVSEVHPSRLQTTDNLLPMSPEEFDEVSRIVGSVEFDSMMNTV
Description: as §1, §2

SMILES	Inhibition of STAT3 binding to pY-peptide compared with C188 (STAT3)	IC50 (STAT3)	IC50 (pSTAT3 (Tyr-705))	IC50 (pSTAT5)	IC50 (pSTAT1 (Tyr-701))
Cc1ccc(S(=O)(=O)Nc2cc(Sc3nc4ccccc4s3)c(O)c3ccccc23)c(C)c1 [Compound C188-2]	–	20 ± 9.9 µM	29.8 ± 25.9 µM	35 ± 29.7 µM	51 µM
CC(C)OC(=O)C(C(=O)C(F)(F)F)c1cc(NS(=O)(=O)c2ccc(Br)cc2)c2ccccc2c1O (stereo not shown) [Compound C188-4]	–	21.5 ± 21.9 µM	11 ± 1.4 µM	–	29 µM
CC(=O)c1c(C)oc2c1cc(NS(=O)(=O)c1cc(C)ccc1C)c1ccccc12 [Compound C188-11]	–	55 µM and 54.5 µM	> 300 µM	> 300 µM	> 300 µM
CC(=O)Nc1c([N+](=O)[O-])cc(NS(=O)(=O)c2ccccc2)c2ccccc12 [Compound C188-12]	–	> 300 µM	> 300 µM	> 300 µM	> 300 µM
CC(=O)Nc1c([N+](=O)[O-])cc(N(C(C)=O)S(=O)(=O)c2ccccc2)c2ccccc12 [Compound C188-13]	–	280 ± 41 µM	–	> 300 µM	> 300 µM
O=S(=O)(Nc1ccc(O)c2ccccc12)c1ccccc1 [Compound C188-21]	–	> 300 µM	15 ± 17 µM	–	> 300 µM
Cc1ccc(S(=O)(=O)Nc2cc3c4c(oc3c3ccccc23)CCC(C(C)(C)C)C4)c(C)c1 (stereo not shown) [Compound C188-26]	–	89 ± 2.8 µM	–	> 300 µM	–
O=S(=O)(Nc1ccc(O)c2ccccc12)c1ccc(F)cc1 [Compound C188-27]	–	> 300 µM	–	> 300 µM	> 300 µM
CC(=O)Oc1c(Br)cc(N(C(C)=O)S(=O)(=O)c2ccc(C)cc2)c2ccccc12 [Compound C188-28]	–	71 ± 33.9 µM	–	> 300 µM	10 µM
COCc1oc2c(cc(NS(=O)(=O)c3ccc(F)cc3)c3ccccc32)c1C(=O)OC [Compound C188-29]	–	27.5 ± 10.6 µM	–	> 300 µM	> 300 µM
CCOC(=O)c1c(C)oc2c1cc(NS(=O)(=O)c1ccc(C(C)(C)C)cc1)c1ccccc12 [Compound C188-35]	–	25.5 ± 6.4 µM	–	> 300 µM	> 300 µM
COc1ccc(S(=O)(=O)Nc2cc(Sc3cccc4cccnc34)c(O)c3ccccc23)cc1 [Compound C188-38]	–	18.5 ± 9.2 µM	–	–	> 300 µM

Second part, the compound after the results:

Inhibition of STAT3 binding to pY-peptide compared with C188 (STAT3)	IC50 (STAT3)	IC50 (pSTAT3 (Tyr-705))	IC50 (pSTAT5)	IC50 (pSTAT1 (Tyr-701))	SMILES
improved inhibition	5.5 ± 2.1 µM	16.2 ± 24.1 µM	1.5 µM	50.5 ± 53 µM	O=[N+]([O-])c1cccc(S(=O)(=O)Nc2cc(Sc3nc4ccccc4s3)c(O)c3ccccc23)c1 [Compound C188-1]
–	17.3 ± 8.5 µM	21.6 ± 11.1 µM	21 µM	34.5 ± 10.6 µM	Cc1cc(C)c(S(=O)(=O)Nc2cc(C(C(=O)OC(C)C)C(=O)C(F)(F)F)c(O)c3ccccc23)c(C)c1 (stereo not shown) [Compound C188-3]
–	11.5 ± 7.8 µM	27 ± 1.4 µM	> 300 µM	–	CC(C)OC(=O)C(C(=O)C(F)(F)F)c1cc(NS(=O)(=O)c2ccc(Cl)cc2)c2ccccc2c1O (stereo not shown) [Compound C188-5]
–	16 ± 15.6 µM	23.5 ± 6.4 µM	–	–	CC(C)OC(=O)C(C(=O)C(F)(F)F)c1cc(NS(=O)(=O)c2ccccc2)c2ccccc2c1O (stereo not shown) [Compound C188-6]
activity similar to C188	8 ± 2.8 µM	> 300 µM	> 300 µM	> 300 µM	Cc1cc(C)c(S(=O)(=O)Nc2cc(Cl)c(O)c3ccccc23)cc1C [Compound C188-10]
improved inhibition	4 µM	–	> 300 µM	> 300 µM	O=S(=O)(Nc1cc(Sc2ccccc2)c(O)c2ccccc12)c1ccc(F)cc1 [Compound C188-16]
improved inhibition	3.5 ± 2.1 µM	> 300 µM	–	> 300 µM	O=S(=O)(Nc1cc(Sc2nc[nH]n2)c(O)c2ccccc12)c1ccc(F)cc1 [Compound C188-17]
